Measurements: the supplement of paper PMC10307832

Assays:
Test in all cases: relative viability (nuclei count vs DMSO), 5 days (fraction); higher = more cells survive
Kobe2602 + Pemetrexed = compound: C1=CC(=CC=C1NC(=S)NNC2=C(C=C(C=C2[N+](=O)[O-])C(F)(F)F)[N+](=O)[O-])F [Kobe2602] + Nc1nc2[nH]cc(CCc3ccc(C(=O)N[C@@H](CCC(=O)O)C(=O)O)cc3)c2c(=O)[nH]1 [Pemetrexed] (partner 0.2 µM)
Summary of the method: (§1)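 Lung cancer cell lines were seeded in 1536-well plates and dosed by pin tool the next day, with either a single drug or a fixed anchor-drug dose combined with five library-drug doses (not always all listed) spaced in √10 steps. Five days later, one step fixed the cells and stained their nuclei (final 0.05% Triton X-100, 1% formaldehyde, 1 ug/ml Hoechst), and nuclei were counted on 4× images. Relative viability is the nuclei count in treated wells divided by the count in vehicle wells, and each value is the median of duplicate plates.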

[1] = compound: COc1cc2nccc(Oc3ccc(NC(=O)C4(C(=O)Nc5ccc(F)cc5)CC4)cc3)c2cc1OC [Cabozantinib] + CC(C)C[C@H](NC(=O)[C@H](Cc1ccccc1)NC(=O)c1cnccn1)B(O)O [Bortezomib] (partner 0.002 µM)
Summary of the method: as §1

[2] = compound: COc1cc2nccc(Oc3ccc(NC(=O)C4(C(=O)Nc5ccc(F)cc5)CC4)cc3)c2cc1OC [Cabozantinib] + CCNC(=O)c1noc(-c2cc(C(C)C)c(O)cc2O)c1-c1ccc(CN2CCOCC2)cc1 [Luminespib] (partner 0.01 µM)
Summary of the method: as §1

Zosuquidar + Luminespib = compound: O[C@@H](COc1cccc2ncccc12)CN1CCN([C@@H]2c3ccccc3[C@@H]3[C@H](c4ccccc42)C3(F)F)CC1 [Zosuquidar] + CCNC(=O)c1noc(-c2cc(C(C)C)c(O)cc2O)c1-c1ccc(CN2CCOCC2)cc1 [Luminespib] (partner 0.01 µM)
Summary of the method: as §1

Cell Line | relative viability (Kobe2602 + Pemetrexed; first compound 0.2 µM) | relative viability (Kobe2602 + Pemetrexed; first compound 0.6325 µM) | relative viability (Kobe2602 + Pemetrexed; first compound 2 µM) | relative viability (Kobe2602 + Pemetrexed; first compound 6.325 µM) | relative viability (Kobe2602 + Pemetrexed; first compound 20 µM) | relative viability ([1]; first compound 0.02 µM) | relative viability ([1]; first compound 0.06325 µM) | relative viability ([1]; first compound 0.2 µM) | relative viability ([1]; first compound 0.6325 µM) | relative viability ([1]; first compound 2 µM) | relative viability ([2]; first compound 0.02 µM) | relative viability ([2]; first compound 0.06325 µM) | relative viability ([2]; first compound 0.2 µM) | relative viability ([2]; first compound 0.6325 µM) | relative viability ([2]; first compound 2 µM) | relative viability (Zosuquidar + Luminespib; first compound 0.01 µM) | relative viability (Zosuquidar + Luminespib; first compound 0.03162 µM) | relative viability (Zosuquidar + Luminespib; first compound 0.1 µM) | relative viability (Zosuquidar + Luminespib; first compound 0.3162 µM) | relative viability (Zosuquidar + Luminespib; first compound 1 µM)
NCI-H1563 | 0.846 | 0.717 | 0.611 | 0.786 | 0.847 | 0.92 | 0.875 | 0.904 | 0.824 | 1.08 | 0.507 | 0.52 | 0.508 | 0.527 | 0.531 | 0.471 | 0.536 | 0.523 | 0.538 | 0.532
NCI-H1650 | 0.394 | 0.355 | 0.363 | 0.335 | 0.374 | 0.182 | 0.212 | 0.184 | 0.199 | 0.222 | 0.187 | 0.202 | 0.185 | 0.185 | 0.169 | 0.178 | 0.183 | 0.204 | 0.203 | 0.202
NCI-H1651 | 0.526 | 0.51 | 0.569 | 0.573 | 0.731 | 0.883 | 1.03 | 0.891 | 0.904 | 0.985 | 0.881 | 0.879 | 0.908 | 0.733 | 0.946 | 0.897 | 0.973 | 0.655 | 0.862 | 0.792
NCI-H1666 | 0.81 | 0.861 | 1.01 | 0.934 | 0.861 | 0.87 | 0.934 | 0.879 | 1.02 | 0.875 | 0.968 | 1 | 1.02 | 1.04 | 1.06 | 0.966 | 0.978 | 0.945 | 1.01 | 1.08
NCI-H1734 | 0.445 | 0.419 | 0.422 | 0.418 | 0.398 | 1.04 | 1.06 | 0.987 | 0.891 | 0.951 | 0.186 | 0.206 | 0.22 | 0.203 | 0.186 | 0.222 | 0.251 | 0.182 | 0.187 | 0.184
NCI-H1755 | 0.514 | 0.419 | 0.447 | 0.391 | 0.398 | 0.962 | 1 | 0.903 | 0.895 | 0.928 | 0.33 | 0.419 | 0.54 | 0.344 | 0.403 | 0.335 | 0.729 | 0.564 | 0.358 | 0.471
NCI-H1792 | 0.679 | 0.964 | 0.714 | 0.887 | 0.814 | 0.848 | 1.19 | 0.858 | 0.946 | 0.975 | – | 0.404 | 0.501 | 0.334 | 0.325 | 0.334 | 0.234 | 0.38 | 0.673 | 0.293
NCI-H1915 | 0.489 | 0.498 | 0.458 | 0.503 | 0.45 | 1.01 | 1.02 | 0.971 | 1.01 | 0.979 | 0.915 | 0.978 | 0.779 | 0.871 | 0.776 | 0.742 | 0.839 | 0.792 | 0.753 | 0.811
NCI-H1975 | 0.271 | 0.306 | 0.265 | 0.294 | 0.286 | 0.409 | 0.403 | 0.357 | 0.402 | 0.389 | 0.221 | 0.258 | 0.233 | 0.219 | 0.212 | 0.264 | 0.174 | 0.217 | 0.213 | 0.182
NCI-H1993 | 0.561 | 0.589 | 0.461 | 0.531 | 0.587 | 0.829 | 1.2 | 0.716 | 0.816 | 0.988 | 0.787 | 0.738 | 0.667 | 0.828 | 0.73 | 0.874 | 0.78 | 1.55 | 0.778 | 0.75
NCI-H2009 | 1.02 | 1.03 | 1.09 | 1.02 | 0.979 | 1.06 | 1.15 | 1.07 | 1.16 | 0.998 | 1.13 | 1.1 | 1 | 1.1 | 1.14 | 1 | 1.07 | 0.986 | 1.02 | 0.989
NCI-H2023 | 0.218 | 0.255 | 0.194 | 0.211 | 0.0788 | 0.893 | 0.957 | 0.819 | 0.889 | 1.03 | 0.839 | 0.68 | 0.635 | 0.641 | 0.539 | 0.796 | 0.619 | 0.904 | 0.776 | 0.759
NCI-H2085 | 0.944 | 0.882 | 0.959 | 0.904 | 0.901 | 1.22 | 1.14 | 1.08 | 1.01 | 1.03 | 0.472 | 0.498 | 0.464 | 0.467 | 0.432 | 0.425 | 0.526 | 0.531 | 0.44 | 0.471
NCI-H2087 | 0.649 | 0.653 | 0.584 | 0.698 | 0.649 | 0.863 | 1.04 | 0.702 | 0.661 | 0.815 | 0.163 | 0.185 | 0.193 | 0.168 | 0.158 | 0.155 | – | 0.184 | 0.195 | 0.16
NCI-H2126 | 0.647 | 0.67 | 0.629 | 0.736 | 0.686 | 1.13 | 1.11 | 1.1 | 1.14 | 1.11 | 0.871 | 0.973 | 0.969 | 0.89 | 1.1 | 0.93 | 0.909 | – | 0.935 | 0.952
NCI-H2228 | 0.369 | 0.356 | 0.339 | 0.344 | 0.35 | 1.04 | 1.47 | 1.33 | 1.11 | 0.926 | 0.162 | 0.167 | 0.175 | 0.122 | 0.134 | 0.124 | 0.163 | 0.185 | 0.171 | 0.206
NCI-H2347 | 0.432 | 0.467 | 0.427 | 0.443 | 0.431 | 0.875 | 1.34 | 0.944 | 0.963 | 0.666 | 0.411 | 0.661 | 0.778 | – | 0.515 | 0.539 | 0.51 | 0.256 | 0.34 | 0.602
NCI-H2405 | 1.07 | 1.21 | 0.888 | 1.1 | 1.08 | 0.947 | 1.06 | 0.989 | 0.871 | 1.04 | 0.615 | 0.83 | 0.648 | 0.629 | 0.588 | 0.671 | 0.687 | 0.589 | 0.654 | 0.824
NCI-H3122 | 0.189 | 0.191 | 0.198 | 0.187 | 0.208 | 1 | 1.01 | 0.978 | 0.924 | 0.964 | 0.111 | 0.102 | 0.0937 | 0.0876 | 0.101 | 0.095 | 0.0891 | 0.0947 | 0.0965 | 0.0865
PC-3 [JPC-3] | 1.26 | 1.33 | 1.11 | 1.11 | 1.06 | 0.802 | 0.992 | – | 0.863 | 0.867 | 0.857 | 0.803 | – | 0.825 | 0.777 | 0.697 | 0.647 | 0.647 | 0.658 | 0.75
PC-14 | 0.15 | 0.137 | 0.134 | 0.15 | 0.14 | 0.952 | 0.89 | – | 0.829 | 0.8 | 0.198 | 0.139 | – | 0.237 | 0.179 | 0.129 | – | 0.135 | 0.135 | 0.124
RERF-LC-KJ | 0.468 | 0.469 | 0.498 | 0.496 | 0.449 | 1.11 | 1.04 | 1.26 | 1.05 | 1.06 | 1.32 | 1.31 | 1.19 | 1.19 | 1.23 | 1.28 | 1.11 | 1.29 | 1.34 | 1.19
SK-LU-1 | 0.969 | 0.978 | 1.02 | 0.963 | 0.953 | 1.06 | 1.78 | 1.39 | 0.905 | 1.1 | 0.225 | 0.209 | 0.207 | 0.192 | 0.21 | 0.228 | 0.201 | 0.177 | 0.204 | 0.219
SW 1573 | 0.786 | 0.96 | 0.82 | 0.84 | 0.598 | 1.23 | 1.05 | 1.09 | 0.951 | 0.875 | 0.22 | 0.223 | 0.221 | 0.151 | 0.122 | 0.281 | 0.287 | 0.287 | 0.275 | 0.355
